Measurements from ChEMBL document CHEMBL1126851, “Conformationally restrained analogs of sympathomimetic catecholamines. Synthesis, conformational analysis, and adrenergic activity of isochroman derivatives” (J Med Chem, 1993).

Legend:
[1] = molecular target: T1, Adrenergic receptor alpha-1 (Rattus norvegicus) (UniProt P15823+P23944+P43140); assay: Tested for alpha adrenergic activity against alpha-1 receptor from isolated rat vas deferens; format: tissue-based
[2] = molecular target: T2, Adrenergic receptor alpha-1 (Rattus norvegicus, UniProt P15823+P23944+P43140)
T2 sequence (P15823 whole entry): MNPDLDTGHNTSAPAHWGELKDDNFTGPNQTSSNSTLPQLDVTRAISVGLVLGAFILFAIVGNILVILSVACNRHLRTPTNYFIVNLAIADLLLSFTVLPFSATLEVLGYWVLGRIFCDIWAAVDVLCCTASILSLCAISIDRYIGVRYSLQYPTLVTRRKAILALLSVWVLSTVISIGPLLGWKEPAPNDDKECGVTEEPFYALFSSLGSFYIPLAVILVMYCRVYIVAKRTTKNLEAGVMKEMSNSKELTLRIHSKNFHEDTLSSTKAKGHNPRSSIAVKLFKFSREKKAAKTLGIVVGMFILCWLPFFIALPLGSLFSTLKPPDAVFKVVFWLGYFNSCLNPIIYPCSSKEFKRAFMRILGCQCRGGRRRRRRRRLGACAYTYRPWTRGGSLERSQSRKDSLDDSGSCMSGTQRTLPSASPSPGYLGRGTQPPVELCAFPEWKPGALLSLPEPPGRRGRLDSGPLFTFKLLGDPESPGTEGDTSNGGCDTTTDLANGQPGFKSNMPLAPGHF
T2 sequence (P23944 whole entry): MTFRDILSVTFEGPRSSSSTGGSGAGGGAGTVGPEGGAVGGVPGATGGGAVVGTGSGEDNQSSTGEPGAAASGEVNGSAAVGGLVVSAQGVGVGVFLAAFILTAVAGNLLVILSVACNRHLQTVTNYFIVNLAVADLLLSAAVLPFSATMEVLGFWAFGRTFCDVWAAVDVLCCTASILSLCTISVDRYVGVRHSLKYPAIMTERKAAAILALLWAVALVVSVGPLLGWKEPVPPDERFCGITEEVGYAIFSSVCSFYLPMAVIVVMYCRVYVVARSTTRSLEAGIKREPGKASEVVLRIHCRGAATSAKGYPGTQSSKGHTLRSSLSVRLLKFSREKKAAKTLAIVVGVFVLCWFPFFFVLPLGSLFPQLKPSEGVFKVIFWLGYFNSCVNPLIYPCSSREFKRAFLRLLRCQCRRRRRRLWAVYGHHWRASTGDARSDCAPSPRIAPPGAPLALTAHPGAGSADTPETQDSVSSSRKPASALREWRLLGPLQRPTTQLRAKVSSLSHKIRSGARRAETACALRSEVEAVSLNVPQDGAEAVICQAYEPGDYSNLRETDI
T2 sequence (P43140 whole entry): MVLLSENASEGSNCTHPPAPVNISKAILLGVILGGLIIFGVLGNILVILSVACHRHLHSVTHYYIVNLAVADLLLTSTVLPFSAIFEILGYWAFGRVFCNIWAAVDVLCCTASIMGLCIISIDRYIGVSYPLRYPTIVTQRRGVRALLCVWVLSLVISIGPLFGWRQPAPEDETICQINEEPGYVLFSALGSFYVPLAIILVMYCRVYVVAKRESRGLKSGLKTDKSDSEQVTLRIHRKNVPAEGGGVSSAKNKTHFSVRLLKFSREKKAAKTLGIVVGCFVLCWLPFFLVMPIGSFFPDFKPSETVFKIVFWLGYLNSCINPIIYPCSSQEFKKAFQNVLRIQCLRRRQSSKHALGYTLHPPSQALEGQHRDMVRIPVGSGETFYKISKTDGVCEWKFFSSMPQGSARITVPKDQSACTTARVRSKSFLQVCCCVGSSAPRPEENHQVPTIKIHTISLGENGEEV

[3] = molecular target: Beta-2 adrenergic receptor (Bos taurus, UniProt Q28044); assay: Tested for binding affinity against beta-2 adrenergic receptor in bovine lung using [3H]DHA as radioligand
Chain of Beta-2 adrenergic receptor (Bos taurus, UniProt Q28044) (Q28044 whole entry): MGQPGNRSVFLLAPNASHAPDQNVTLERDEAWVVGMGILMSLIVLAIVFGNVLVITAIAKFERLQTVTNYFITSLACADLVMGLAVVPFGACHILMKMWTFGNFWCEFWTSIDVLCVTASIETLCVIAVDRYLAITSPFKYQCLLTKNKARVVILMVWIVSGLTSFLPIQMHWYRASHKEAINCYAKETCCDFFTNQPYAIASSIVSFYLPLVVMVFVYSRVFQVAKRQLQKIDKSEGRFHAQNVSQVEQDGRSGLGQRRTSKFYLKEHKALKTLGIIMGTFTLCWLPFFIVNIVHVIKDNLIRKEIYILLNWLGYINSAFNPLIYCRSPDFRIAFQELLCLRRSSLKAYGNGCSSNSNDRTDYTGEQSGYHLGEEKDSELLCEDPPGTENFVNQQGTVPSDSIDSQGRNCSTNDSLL

[4] = molecular target: Beta-1 adrenergic receptor (Rattus norvegicus, UniProt P18090); assay: biochemical
Chain of Beta-1 adrenergic receptor (Rattus norvegicus, UniProt P18090) (P18090 whole entry): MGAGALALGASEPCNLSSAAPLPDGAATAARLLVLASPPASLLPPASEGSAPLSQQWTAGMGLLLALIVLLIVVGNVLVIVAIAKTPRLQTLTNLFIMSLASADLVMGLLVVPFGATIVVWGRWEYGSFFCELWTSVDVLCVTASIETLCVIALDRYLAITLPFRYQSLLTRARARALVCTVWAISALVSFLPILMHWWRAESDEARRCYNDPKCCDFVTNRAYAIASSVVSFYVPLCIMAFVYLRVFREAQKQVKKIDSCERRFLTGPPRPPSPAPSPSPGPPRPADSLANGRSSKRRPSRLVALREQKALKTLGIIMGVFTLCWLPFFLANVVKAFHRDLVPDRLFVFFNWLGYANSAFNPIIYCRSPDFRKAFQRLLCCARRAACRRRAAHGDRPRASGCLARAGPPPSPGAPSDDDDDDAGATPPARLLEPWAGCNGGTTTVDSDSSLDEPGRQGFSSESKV
Description: Tested for binding affinity against beta-1 adrenergic receptor in rat brain using [3H]-CGP- 26505 as radioligand

[5] = molecular target: T3, Adrenergic receptor alpha-2 (Rattus norvegicus, UniProt P22086+P19328+P22909)
T3 sequence (P22086 whole entry): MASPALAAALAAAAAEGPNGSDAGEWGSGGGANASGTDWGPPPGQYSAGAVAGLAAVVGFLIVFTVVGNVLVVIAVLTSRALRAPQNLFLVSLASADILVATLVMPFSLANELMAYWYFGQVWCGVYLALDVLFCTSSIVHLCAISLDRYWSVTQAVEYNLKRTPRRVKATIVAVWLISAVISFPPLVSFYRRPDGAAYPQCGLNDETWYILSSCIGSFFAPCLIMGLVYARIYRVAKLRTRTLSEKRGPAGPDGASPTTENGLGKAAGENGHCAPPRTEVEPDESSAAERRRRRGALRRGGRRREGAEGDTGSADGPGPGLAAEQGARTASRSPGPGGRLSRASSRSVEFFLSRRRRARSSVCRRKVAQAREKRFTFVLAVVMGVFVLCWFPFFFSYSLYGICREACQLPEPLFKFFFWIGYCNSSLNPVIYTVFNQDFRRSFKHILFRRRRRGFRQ
T3 sequence (P19328 whole entry): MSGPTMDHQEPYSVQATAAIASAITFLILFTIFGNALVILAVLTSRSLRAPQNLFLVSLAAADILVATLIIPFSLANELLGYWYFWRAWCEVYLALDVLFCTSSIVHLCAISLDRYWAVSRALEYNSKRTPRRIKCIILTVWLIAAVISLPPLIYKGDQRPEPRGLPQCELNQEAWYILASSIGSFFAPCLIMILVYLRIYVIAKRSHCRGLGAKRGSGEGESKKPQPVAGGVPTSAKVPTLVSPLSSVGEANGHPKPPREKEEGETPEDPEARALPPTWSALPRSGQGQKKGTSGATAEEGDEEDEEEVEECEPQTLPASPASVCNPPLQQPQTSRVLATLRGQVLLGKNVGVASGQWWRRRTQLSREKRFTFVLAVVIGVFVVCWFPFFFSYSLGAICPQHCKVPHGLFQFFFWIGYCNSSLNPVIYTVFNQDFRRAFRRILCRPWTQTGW
T3 sequence (P22909 whole entry): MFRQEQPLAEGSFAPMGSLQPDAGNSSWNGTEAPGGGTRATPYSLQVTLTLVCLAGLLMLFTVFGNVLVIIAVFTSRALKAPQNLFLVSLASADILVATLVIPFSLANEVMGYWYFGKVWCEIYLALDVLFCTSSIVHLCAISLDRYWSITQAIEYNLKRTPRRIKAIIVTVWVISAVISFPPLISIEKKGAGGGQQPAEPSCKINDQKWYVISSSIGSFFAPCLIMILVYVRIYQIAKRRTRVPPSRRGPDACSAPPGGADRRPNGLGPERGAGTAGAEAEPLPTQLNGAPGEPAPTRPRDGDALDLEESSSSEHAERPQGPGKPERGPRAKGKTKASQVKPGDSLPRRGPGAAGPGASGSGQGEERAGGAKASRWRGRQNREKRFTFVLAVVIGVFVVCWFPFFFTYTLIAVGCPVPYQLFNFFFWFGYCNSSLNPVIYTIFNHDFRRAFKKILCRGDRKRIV

[6] = molecular target: T4, Adrenergic receptor alpha-2 (UniProt P08913+P18825+P18089); conditions: Cavia porcellus; Ileum
T4 sequence (P08913 whole entry, looked up): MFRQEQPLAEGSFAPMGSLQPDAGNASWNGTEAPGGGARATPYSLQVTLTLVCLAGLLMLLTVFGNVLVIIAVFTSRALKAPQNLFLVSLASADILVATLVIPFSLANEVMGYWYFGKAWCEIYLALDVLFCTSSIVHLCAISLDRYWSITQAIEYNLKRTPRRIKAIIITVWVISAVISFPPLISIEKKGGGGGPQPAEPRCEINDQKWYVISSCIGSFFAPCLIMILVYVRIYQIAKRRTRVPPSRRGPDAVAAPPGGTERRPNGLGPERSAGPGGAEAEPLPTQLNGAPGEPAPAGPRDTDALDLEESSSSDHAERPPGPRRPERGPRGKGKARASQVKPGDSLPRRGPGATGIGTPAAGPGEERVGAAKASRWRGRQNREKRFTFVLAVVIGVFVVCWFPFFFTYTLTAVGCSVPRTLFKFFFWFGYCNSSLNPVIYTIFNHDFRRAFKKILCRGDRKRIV
T4 sequence (P18089 whole entry, looked up): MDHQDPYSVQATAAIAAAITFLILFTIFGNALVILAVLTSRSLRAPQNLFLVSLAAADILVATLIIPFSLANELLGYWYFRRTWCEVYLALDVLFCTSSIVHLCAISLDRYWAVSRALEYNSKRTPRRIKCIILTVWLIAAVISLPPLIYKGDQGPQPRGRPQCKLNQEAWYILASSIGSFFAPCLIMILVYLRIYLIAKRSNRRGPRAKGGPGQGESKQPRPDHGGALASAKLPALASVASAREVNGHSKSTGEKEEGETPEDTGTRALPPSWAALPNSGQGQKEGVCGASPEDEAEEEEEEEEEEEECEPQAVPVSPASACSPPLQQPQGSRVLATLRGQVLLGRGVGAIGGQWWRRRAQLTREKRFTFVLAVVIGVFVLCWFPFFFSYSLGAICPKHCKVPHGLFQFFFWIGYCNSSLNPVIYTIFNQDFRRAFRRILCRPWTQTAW
T4 sequence (P18825 whole entry, looked up): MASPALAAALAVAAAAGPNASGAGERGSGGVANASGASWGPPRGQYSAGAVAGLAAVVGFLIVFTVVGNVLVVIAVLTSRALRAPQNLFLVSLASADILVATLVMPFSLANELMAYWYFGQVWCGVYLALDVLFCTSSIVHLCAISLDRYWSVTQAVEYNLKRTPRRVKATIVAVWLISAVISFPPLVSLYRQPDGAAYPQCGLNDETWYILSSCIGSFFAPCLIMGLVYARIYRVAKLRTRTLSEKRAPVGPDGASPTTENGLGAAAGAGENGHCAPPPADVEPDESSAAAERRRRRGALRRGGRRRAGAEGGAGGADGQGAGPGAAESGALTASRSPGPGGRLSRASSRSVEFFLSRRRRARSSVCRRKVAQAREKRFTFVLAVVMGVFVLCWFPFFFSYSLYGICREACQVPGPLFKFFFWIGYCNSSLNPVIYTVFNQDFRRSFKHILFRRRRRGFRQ
Description: Tested for alpha adrenergic activity against alpha-2 receptor from isolated guinea pig ileum

[7] = molecular target: T1, Adrenergic receptor alpha-1 (Rattus norvegicus); assay: Intrinsic activity against alpha-1 receptor in isolated rat vas deferens; format: tissue-based
[8] = molecular target: T4, Adrenergic receptor alpha-2; conditions: Cavia porcellus; Ileum; remark: listed apart in the source
Description: Intrinsic activity against alpha-2 receptor in isolated guinea pig ileum

[9] = molecular target: Beta-1 adrenergic receptor (Cavia porcellus, UniProt B0FL73)
Chain of Beta-1 adrenergic receptor (Cavia porcellus, UniProt B0FL73) (B0FL73 whole entry): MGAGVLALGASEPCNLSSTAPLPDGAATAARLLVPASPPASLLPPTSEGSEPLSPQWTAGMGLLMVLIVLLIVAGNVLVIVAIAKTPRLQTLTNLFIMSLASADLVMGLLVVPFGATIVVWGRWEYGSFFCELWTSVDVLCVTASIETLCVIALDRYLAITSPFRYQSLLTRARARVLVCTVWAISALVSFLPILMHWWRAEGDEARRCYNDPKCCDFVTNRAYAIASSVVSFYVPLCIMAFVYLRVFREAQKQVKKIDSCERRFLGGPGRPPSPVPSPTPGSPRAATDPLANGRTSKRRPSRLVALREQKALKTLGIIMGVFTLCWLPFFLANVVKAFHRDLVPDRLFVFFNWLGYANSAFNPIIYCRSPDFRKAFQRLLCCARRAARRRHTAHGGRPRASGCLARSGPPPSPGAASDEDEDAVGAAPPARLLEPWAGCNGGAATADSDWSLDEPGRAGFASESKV
Description: (§1) Inhibitory activity against beta-1 adrenergic receptor in guinea pig atria is determined

[10] = molecular target: Beta-2 adrenergic receptor (Cavia porcellus, UniProt Q8K4Z4); assay: Inhibitory activity against beta-2 adrenergic receptor in guinea pig tracheal strip is determined
Chain of Beta-2 adrenergic receptor (Cavia porcellus, UniProt Q8K4Z4) (Q8K4Z4 whole entry): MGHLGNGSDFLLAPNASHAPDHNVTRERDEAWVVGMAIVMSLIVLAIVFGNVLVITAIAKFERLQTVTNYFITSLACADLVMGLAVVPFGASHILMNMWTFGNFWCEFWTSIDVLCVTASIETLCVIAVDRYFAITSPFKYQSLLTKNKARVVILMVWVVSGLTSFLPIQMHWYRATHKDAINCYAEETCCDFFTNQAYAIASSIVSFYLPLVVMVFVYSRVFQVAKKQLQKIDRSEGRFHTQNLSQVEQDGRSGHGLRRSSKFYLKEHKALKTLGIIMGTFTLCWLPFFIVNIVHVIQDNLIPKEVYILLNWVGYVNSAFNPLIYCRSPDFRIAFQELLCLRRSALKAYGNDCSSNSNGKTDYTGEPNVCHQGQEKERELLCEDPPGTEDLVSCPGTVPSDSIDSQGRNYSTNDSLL

[11] = molecular target: Beta-2 adrenergic receptor (Cavia porcellus) (UniProt Q8K4Z4)
Chain of Beta-2 adrenergic receptor (Cavia porcellus) (Q8K4Z4 whole entry, looked up): as the sequence (Q8K4Z4 whole entry) above

[12] = molecular target: T2, Adrenergic receptor alpha-1; assay: -log IC50 value against alpha-1 receptor in rat vas deferens; format: tissue-based
[13] = molecular target: Beta-2 adrenergic receptor (Cavia porcellus) (UniProt Q8K4Z4); remark: listed apart in the source
[14] = molecular target: Beta-1 adrenergic receptor (Cavia porcellus) (UniProt B0FL73); assay: Intrinsic activity against beta-1 receptor in isolated guinea pig atria
Chain of Beta-1 adrenergic receptor (Cavia porcellus) (B0FL73 1-467): as the sequence (B0FL73 whole entry) above

[15] = molecular target: Beta-1 adrenergic receptor (Cavia porcellus) (UniProt B0FL73)
Description: as §1

Structure (SMILES) | pD2 [1] | Ki [2] [µM] | Ki [3] [µM] | Ki [4] [µM] | Ki [5] [µM] | pD2 [6] | IA [7] | IA [8] | IC50 [9] [µM] | IC50 [10] [µM] | IA [11] | -Log IC50 [12] | pD2 [13] | IA [14] | pD2 [15]
NCC1OCCc2cc(O)c(O)cc21 (stereo unspecified) | 3.97 | 60.3 | 28.8 | 3.45 | 1.28 | 5.45 | 0.42 | 0.73 | 6.76 | 30.2 |  |  |  |  | 
NCC1OCCc2c1ccc(O)c2O (stereo unspecified) | 4.69 | 42.2 | 49.9 | 40.3 | 0.0074 |  | 1.03 | 1 | 66.1 | > 316 |  |  |  |  | 
CC(C)NCC(O)c1ccc(O)c(O)c1 (stereo unspecified) |  |  |  |  |  |  | 0.83 |  |  |  | 1 |  |  |  | 
CC(C)NCC1OCCc2c1ccc(O)c2O (stereo unspecified) |  | 21.5 | 14.9 | 28.8 | 1.78 | 5.26 |  | 1 | > 316 |  |  | < 3.5 | < 3.5 |  | 
CC(C)NCC1OCCc2cc(O)c(O)cc21 (stereo unspecified) |  | 26 | 4.9 | 1.49 | 4.12 | 4.56 |  | 0.72 | 33.9 | 5.5 |  |  |  |  | 
NC[C@H](O)c1ccc(O)c(O)c1 | 5.12 |  |  |  |  | 6.56 | 1 | 1 |  |  | 1 |  | 6.03 | 1 | 6.32
